Assay results as given in patent publication US20240408211A1, “COMPOSITIONS AND METHODS OF AMELIORATING AVERSIVENESS OF AVERSIVE STIMULI BY INHIBITION OF PURINERGIC RECEPTORS” (Monell Chemical Senses Center, priority 2021, published 2024).

Assays:
[1] = tested on: P2X3/P2X2/3; conditions: cited from earlier work
[2] = tested on: nodose C-fiber; conditions: guinea pigs; cited from earlier work
[3] = tested on: C57BL/6J mice; experiment: Brief-exposure gustometer lick test after oral swabbing (or IP injection) of briefly anesthetized mice; format: in vivo, mouse
Excerpt: The methods were adapted from those described by Vandenbeuch et al [Vandenbeuch, A., et al., Postsynaptic P2X3-containing receptors in gustatory nerve fibres mediate responses to all taste qualities in mice. J Physiol 593:1113-1125; 2015] who, (a) in anesthetized mice, flowed AF-353 over the anterior tongue then recorded gustatory nerve responses to tastants [see also (Larson, E. D., et al., Function, innervation, and neurotransmitter signaling in mice lacking Type-II taste cells. eNeuro 7; 2020)] and (b), in awake mice, injected AF-353 intraperitoneally then measured licking for the sweetener SC-45647. Here, we applied AF-353 to the oral cavity of briefly anesthetized mice then measured licking using procedures similar to those of our past work [Med Associates inc. Products: Gustometry, med-associates.com/product/davis-rig-for-mouse-16-bottle/. 2022; Taruno, A., et al., CALHM1 ion channel mediates purinergic neurotransmission of sweet, bitter and umami tastes. Nature 495:223-226; 2013; Tordoff, M. G., et al., Normal taste acceptance and preference of PANX1 knockout mice. Chem. Senses 2015 May 18. pii: bjv025; 2015; Tordoff, M. G.; Aleman, T. R.; McCaughey, S. A. Heightened avidity for trisodium pyrophosphate in mice lacking Taslr3. Chem. Senses 40:53-59; 2014; Tordoff, M. G.; Ellis, H. T. Taste dysfunction in BTBR mice due to a mutation of Itpr3, the inositol triphosphate receptor 3 gene. Physiol. Genomics 45:834-855; 2013] and other investigators [Glendinning, J. I.; Gresack, J.; Spector, A. C. A high-throughput screening procedure for identifying mice with aberrant taste and oromotor function. Chem. Senses 27:461-474; 2002].
Groups of 16 male C57BL/6J mice aged 7 weeks old were purchased from The Jackson Laboratory (strain ID number 000664). They were maintained in a vivarium at 23° C. on a 12 h:12 h light/dark cycle, with lights off at 1800. When not being tested, mice were housed alone in plastic tub cages (26.5×17×12 cm) with a stainless-steel grid lid and wood chips scattered on the floor [see (Tordoff, M. G.; Bachmanov, A. A. Monell mouse taste phenotyping project. Monell Chemical Senses Center, monell.org/MMTPP. 2001) for details]. The mice ate pelleted chow (Teklad 8601) and drank deionized water according to the regimen described below. Each mouse was weighed daily, immediately before it was placed into a gustometer.
Brief-exposure taste acceptance was assessed using MS160-Mouse gustometers manufactured by DiLog Instruments (now available from Med Associates). Each gustometer consists of a 14.5×30×15 cm test chamber with a motorized shutter that controls access to a taste solution. Bottles of taste solution are mounted on a rack that is precisely positioned by a stepper motor so that any one of eight different taste solutions can be presented to the mouse. The drinking spout of each bottle is part of a high-frequency alternating current contact circuit, so that each lick the mouse makes is detected and recorded. Details of construction and other technical information are available elsewhere [Med Associates inc. Products: Gustometry, med-associates.com/product/davis-rig-for-mouse-16-bottle/. 2022; Sheridan, C. Merck stakes out ‘irritable’ neuron territory with $1.25 billion. Nature biotechnology 34:900; 2016].
To train the mice to sample taste solutions, they were first deprived of water for 22.5 h, and then placed into a gustometer with its shutter open. During this first training session, each mouse had continuous access to water for 30 min. It was then returned to its home cage and given water for 1 h. During the following two days, this procedure was repeated, except the shutter allowing access to water was closed 5 sec after each time the mouse began to lick, and was re-opened after a 7.5-sec interval. After 20 min, the mouse was returned to its home cage and given water for 1 h. By the second test using these procedures, nearly all mice had learned to obtain water during the 5-sec access periods. […]

[4] = 0.3, 1 or 3 mM swabbed orally for 4 min versus vehicle
[5] = oral swabbing for 2, 4 or 8 min versus no swabbing

SMILES: COc1cc(C(C)C)c(Oc2cnc(N)nc2N)cc1I [AF-353, 5-[5-iodo-4-methoxy-2-(1-methylethyl)phenoxy]-2,4-pyrimidinediamine]
- P2X3/P2X2/3 antagonist potency [1]: high
- bronchoconstriction-induced nodose C-fiber discharge [2]: blocks
- licking for 1 mM QHCl, oral versus intraperitoneal administration of the same dose ([3]; 0.41 μmol/mouse): significantly more after AF-353 administered orally
- licking for 1 mM QHCl versus DMSO vehicle ([3]; 0.41 μmol/mouse by oral swabbing or IP injection (either route)): licked significantly more
- effect on licking for capsaicin (ANOVA) ([3]; 3 mM for 4 min): neither a main effect of AF-353 nor an AF-353× concentration interaction
- licking of the hedonically positive tastant saccharin relative to DMSO vehicle ([3]; 3 mM for 4 min): licked less
- licking of hedonically negative tastants relative to DMSO vehicle ([3]; 3 mM for 4 min, all (QHCl, urea, denatonium, SOA, Tenofovir Alafenamide, Praziquantel, Ferroquine, citric acid) except NaCl and capsaicin): licked more
- licking for 1 mM QHCl after oral treatment versus either vehicle ([3]; 3 mM in DMSO or alcohol+Tween): licked significantly more
- influence of the vehicle composition (DMSO or alcohol+Tween) on licking rates ([3]; 3 mM oral swab, water or 1 mM QHCl): did not influence licking rates
- lick rates for 1 mM QHCl compared with deionized water ([3]; 3 mM swabbed orally for 4 min): statistically indistinguishable
- licking after oral swabbing relative to oral swabbing with DMSO vehicle (FIG. 4A) ([3]; 3 mM, 0.41 μmol/mouse, route experiment): reduced licking
- 1 mM QHCl licking after 60-min interval relative to 10- and 30-min intervals ([3]; 3 mM, 4 min): significantly reduced
- lick rates for 1 mM QHCl, 10-min versus 30-min swab-test interval ([3]; 3 mM, 4 min): no difference
- effectiveness at 90 min after oral treatment ([3]; 3 mM, 4 min, 1 mM QHCl licking): completely dissipated
- lick rates for water by swab-test interval ([3]; 3 mM, 4 min, interval 10, 30, 60 or 90 min): no effect
- lick rate for 1 mM QHCl [3, 4]: concentration-related increase
- lick rates for deionized water [3, 4]: no significant effects
- Licks to water (mean ± SE licks made in 10-sec tests) ([3]; Capsaicin experiment, 3 mM oral swab): 50 ± 9
- Licks to water (mean ± SE licks made in 10-sec tests) ([3]; Citric acid experiment, 3 mM oral swab): 44 ± 4
- Licks to water (mean ± SE licks made in 10-sec tests) ([3]; Denatonium experiment, 3 mM oral swab): 53 ± 3
- Licks to water (mean ± SE licks made in 10-sec tests) ([3]; Ferroquine experiment, 3 mM oral swab): 47 ± 3
- Licks to water (mean ± SE licks made in 10-sec tests) ([3]; NaCl experiment, 3 mM oral swab): 57 ± 5
- Licks to water (mean ± SE licks made in 10-sec tests) ([3]; Praziquantel experiment, 3 mM oral swab): 52 ± 3
- Licks to water (mean ± SE licks made in 10-sec tests) ([3]; QHCl experiment, 3 mM oral swab): 56 ± 4
- Licks to water (mean ± SE licks made in 10-sec tests) ([3]; Saccharin experiment, 3 mM oral swab): 14 ± 2
- Licks to water (mean ± SE licks made in 10-sec tests) ([3]; Tenofovir experiment, 3 mM oral swab): 56 ± 2
- Licks to water (mean ± SE licks made in 10-sec tests) ([3]; Urea experiment, 3 mM oral swab): 43 ± 5
- lick rates for 1 mM QHCl [3, 5]: increased monotonically
- lick rates for deionized water [3, 5]: reduced lick rates for deionized water significantly
